Some results are limits rather than exact numbers.

Assay [1] deals with constitutive active colorectal cancer cell (CRC) Wnt pathway. The experiment in a line: HCT116 TOPFlash cellular reporter assay (Super TopFlash luciferase), constitutive active Wnt pathway. The class given is cell-based. To be noted: HCT116 TOP reporter cells, 36 hours incubation, luciferase expression. The protocol: In order to discover and characterize small molecules which inhibit the constitutive active colorectal cancer cell (CRC) Wnt pathway, a cellular reporter assay was employed. […] Stable transfectants were generated by cotransfection with pcDNA3 and selection of stable transfected cells with 1 mg/ml G418.
Background: Reporter assays use an easily measured gene product as a stand-in for the process of interest.

Assay [2] concerns HCT116 FOP control reporter cell line. The experiment in a line: HCT116 FOPFlash control reporter assay (FOP control vector, non-functional TCF elements). The class given is cell-based. As to conditions: HCT116 FOP control reporter cells, 36 hours incubation, luciferase expression. From the text: In a parallel approach, HCT116 cells were cotransfected with the FOP control vector and pcDNA3. The FOP vector is identical to the TOP construct, but it contains instead of functional TCF elements a randomized, non-functional sequence. For this transfection a stable transfected cell line was generated as well.

In the case of `CN1CCN(CC(=O)Nc2cc(C(=O)Nc3nnc(-c4ccccc4)s3)ccc2Cl)CC1` [Example 173, 4-chloro-3-{[(4-methylpiperazin-1-yl)acetyl]amino}-N-(5-phenyl-1,3,4-thiadiazol-2-yl)benzamide], the IC50 was 520 nM in assay [1] (Homo sapiens, HCT-116, 36 h) and no less than 50000 nM in assay [2] (Homo sapiens, HCT-116, 36 h).

Take `CN1CCN(C2(C(=O)Nc3cc(C(=O)Nc4nnc(-c5ccccc5)s4)ccc3OC3CC3)CC2)CC1` [Example 171, 4-(cyclopropyloxy)-3-({[1-(4-methylpiperazin-1-yl)cyclopropyl]carbonyl}amino)-N-(5-phenyl-1,3,4-thiadiazol-2-yl)benzamide]: the IC50 was 102 nM in assay [1] (Homo sapiens, HCT-116, 36 h) and no less than 50000 nM in assay [2] (Homo sapiens, HCT-116, 36 h).

With `O=C(Cn1cccn1)Nc1cc(C(=O)Nc2ccc(-c3ccccc3F)nc2)ccc1OC1CC1` [Example 141, 4-(cyclopropyloxy)-N-[6-(2-fluorophenyl)pyridin-3-yl]-3-[(1H-pyrazol-1-ylacetyl)amino]benzamide], the IC50 in assay [1] (Homo sapiens, HCT-116, 36 h) was 680 nM; in assay [2] (Homo sapiens, HCT-116, 36 h) it was no less than 50000 nM.

For `CSc1ccc(C(=O)Nc2ccc(-c3ccccc3F)nc2)cc1NC(=O)CN1CCOCC1` [Example 138, N-[6-(2-fluorophenyl)pyridin-3-yl]-4-(methylsulfanyl)-3-[(morpholin-4-ylacetyl)amino]benzamide], the IC50 in assay [1] (Homo sapiens, HCT-116, 36 h) is 150 nM; in assay [2] (Homo sapiens, HCT-116, 36 h), no less than 50000 nM.

For the molecule `O=C(Nc1nnc(-c2ccccc2F)s1)c1ccc(OC(F)(F)F)c(NC(=O)C2(N3CCOCC3)CC2)c1` [Example 89, N-[5-(2-fluorophenyl)-1,3,4-thiadiazol-2-yl]-3-({[1-(morpholin-4-yl)cyclopropyl]carbonyl}amino)-4-(trifluoromethoxy)benzamide], the IC50 stood at 216 nM in assay [1] (Homo sapiens, HCT-116, 36 h) and 44000 nM in assay [2] (Homo sapiens, HCT-116, 36 h).

For `COc1ccc(NC(=O)c2ccc(-c3ccccc3)nc2)cc1NC(=O)C1(N2CCOCC2)CC1` [Example 256, N-[4-methoxy-3-({[1-(morpholin-4-yl)cyclopropyl]carbonyl}amino)phenyl]-6-phenylnicotinamide], the 50% inhibitory concentration (IC50) in assay [1] (Homo sapiens, HCT-116, 36 h) is 240 nM; in assay [2] (Homo sapiens, HCT-116, 36 h), no less than 50000 nM.

For the molecule `CCc1ccccc1-c1nnc(NC(=O)c2ccc(OC(F)(F)F)c(NC(=O)CN3CCOCC3)c2)s1` [Example 269, N-[5-(2-ethylphenyl)-1,3,4-thiadiazol-2-yl]-3-[(morpholin-4-ylacetyl)amino]-4-(trifluoromethoxy)benzamide], the half-inhibitory concentration (IC50) in assay [1] (Homo sapiens, HCT-116, 36 h) is 375 nM; in assay [2] (Homo sapiens, HCT-116, 36 h), no less than 50000 nM.

With `CN1CCN(CC(=O)Nc2cc(C(=O)Nc3nnc(-c4ccccc4Cl)s3)ccc2OC(F)(F)F)CC1` [Example 148, N-[5-(2-chlorophenyl)-1,3,4-thiadiazol-2-yl]-3-{[(4-methylpiperazin-1-yl)acetyl]amino}-4-(trifluoromethoxy)benzamide], the IC50 in assay [1] (Homo sapiens, HCT-116, 36 h) came out at 205 nM; in assay [2] (Homo sapiens, HCT-116, 36 h), 36500 nM.

For the molecule `CC1CN(CC(=O)Nc2cc(C(=O)Nc3nnc(-c4ccccc4)s3)ccc2OC(F)(F)F)CCN1C` (stereo not shown) [Example 160, 3-{[(3,4-dimethylpiperazin-1-yl)acetyl]amino}-N-(5-phenyl-1,3,4-thiadiazol-2-yl)-4-(trifluoromethoxy)benzamide], the IC50 in assay [1] (Homo sapiens, HCT-116, 36 h) came out at 948 nM; in assay [2] (Homo sapiens, HCT-116, 36 h), 28000 nM.

As for `COc1ccc(C(=O)Nc2ccc(-c3ccccc3F)nc2)cc1NC(=O)CN1C[C@@H]2C[C@H]1CO2` [Example 3, N-[6-(2-fluorophenyl)pyridin-3-yl]-4-methoxy-3-{[(1S,4S)-2-oxa-5-azabicyclo[2.2.1]hept-5-ylacetyl]amino}benzamide], the IC50 in assay [1] (Homo sapiens, HCT-116, 36 h) is 1800 nM; in assay [2] (Homo sapiens, HCT-116, 36 h), no less than 50000 nM.

On to `O=C(CN1CCOCC1)Nc1cc(C(=O)Nc2ccc(-c3ccccc3F)nc2)ccc1C(F)(F)F` [Example 74, N-[6-(2-fluorophenyl)pyridin-3-yl]-3-[(morpholin-4-ylacetyl)amino]-4-(trifluoromethyl)benzamide], for which the IC50 in assay [1] (Homo sapiens, HCT-116, 36 h) was found to be 85.8 nM; in assay [2] (Homo sapiens, HCT-116, 36 h), 42200 nM.

In the case of `CC(C(=O)Nc1cc(NC(=O)c2ccc(-c3cc(F)cc(F)c3)nc2)ccc1OC(F)(F)F)N1C[C@@H]2C[C@H]1CO2` (relative stereo) [Example 185, 6-(3,5-difluorophenyl)-N-[3-({(2R*)-2-[(1S,4S)-2-oxa-5-azabicyclo[2.2.1]hept-5-yl]propanoyl}amino)-4-(trifluoromethoxy)phenyl] nicotinamide], the figures for the IC50 in assay [1] and in assay [2] were 160 nM and 10000 nM, respectively.

On to `COCc1ccc(C(=O)Nc2nnc(-c3ccccc3)s2)cc1NC(=O)CN1CCOCC1` [Example 83, 4-(methoxymethyl)-3-[(morpholin-4-ylacetyl)amino]-N-(5-phenyl-1,3,4-thiadiazol-2-yl)benzamide], for which the IC50 in assay [1] (Homo sapiens, HCT-116, 36 h) was 515 nM; in assay [2] (Homo sapiens, HCT-116, 36 h) it was no less than 50000 nM.

Regarding `CC(C(=O)Nc1cc(NC(=O)c2ccc(-c3cc(F)cc(F)c3)nc2)ccc1OC(F)(F)F)N1CCOCC1` (stereo not shown) [Example 203, 6-(3,5-difluorophenyl)-N-[3-{[2-(morpholin-4-yl)propanoyl]amino}-4-(trifluoromethoxy)phenyl] nicotinamide], the figures for the IC50 in assay [1] and in assay [2] were 124 nM and 15200 nM, respectively.

In the case of `O=C(CN1C[C@@H]2C[C@H]1CO2)Nc1cc(NC(=O)c2ccc(-c3cc(F)cc(F)c3)nc2)ccc1OC(F)(F)F` [Example 184, 6-(3,5-difluorophenyl)-N-[3-{[(1S,4S)-2-oxa-5-azabicyclo[2.2.1]hept-5-ylacetyl]amino}-4-(trifluoromethoxy)phenyl] nicotinamide], the IC50 in assay [1] (Homo sapiens, HCT-116, 36 h) stood at 196 nM; in assay [2] (Homo sapiens, HCT-116, 36 h) it was 11000 nM.

Take `O=C(CN1CCN(C2CC2)CC1)Nc1cc(C(=O)Nc2nnc(-c3ccccc3)s2)ccc1OCC1CC1` [Example 265, 4-(cyclopropylmethoxy)-3-{[(4-cyclopropylpiperazin-1-yl)acetyl]amino}-N-(5-phenyl-1,3,4-thiadiazol-2-yl)benzamide]: the IC50 in assay [1] (Homo sapiens, HCT-116, 36 h) is 320 nM; in assay [2] (Homo sapiens, HCT-116, 36 h), no less than 50000 nM.

With `O=C(CN1CCOCC1)Nc1cc(NC(=O)c2ccc(-c3c(F)cccc3F)nc2)ccc1OC(F)(F)F` [Example 29, 6-(2,6-difluorophenyl)-N-{3-[(morpholin-4-ylacetyl)amino]-4-(trifluoromethoxy)phenyl}nicotinamide], the IC50 in assay [1] (Homo sapiens, HCT-116, 36 h) was 156 nM; in assay [2] (Homo sapiens, HCT-116, 36 h), no less than 50000 nM.

As for `CN1CCN(CC(=O)Nc2cc(C(=O)Nc3nnc(-c4cccc(C(F)(F)F)c4)s3)ccc2OC(F)(F)F)CC1` [Example 272, 3-{[(4-methylpiperazin-1-yl)acetyl]amino}-4-(trifluoromethoxy)-N-{5-[3-(trifluoromethyl)phenyl]-1,3,4-thiadiazol-2-yl}benzamide], the IC50 in assay [1] (Homo sapiens, HCT-116, 36 h) was 545 nM; in assay [2] (Homo sapiens, HCT-116, 36 h), no less than 50000 nM.

As for `O=C(Nc1ccc(OC(F)(F)F)c(NC(=O)C2(N3CCOCC3)CC2)c1)c1cnc(-c2ccccc2)s1` [Example 108, N-[3-({[1-(morpholin-4-yl)cyclopropyl]carbonyl}amino)-4-(trifluoromethoxy)phenyl]-2-phenyl-1,3-thiazole-5-carboxamide], the 50% inhibitory concentration (IC50) was 463 nM in assay [1] (Homo sapiens, HCT-116, 36 h) and no less than 50000 nM in assay [2] (Homo sapiens, HCT-116, 36 h).

For `Cc1ccccc1-c1nnc(NC(=O)c2ccc(OC3CC3)c(NC(=O)CN3CCOCC3)c2)s1` [Example 266, 4-(cyclopropyloxy)-N-[5-(2-methylphenyl)-1,3,4-thiadiazol-2-yl]-3-[(morpholin-4-ylacetyl)amino]benzamide], the IC50 in assay [1] (Homo sapiens, HCT-116, 36 h) was 345 nM; in assay [2] (Homo sapiens, HCT-116, 36 h), no less than 50000 nM.

In general, IC50 refers to the concentration that gives 50% inhibition. The low end stands for higher potency, the high end for lower potency.

The values are drawn from patent US10130633B2, “Compounds” (BAYER PHARMA AKTIENGESELLSCHAFT, priority 2013, dated 2018).
